Results: ChEMBL document CHEMBL1201862, “PubChem BioAssay data set” (2004)
The source made the active and inactive calls.

What was measured:
[1] = biological target: T1, Calpain-2 catalytic subunit (Sus scrofa, UniProt P43367); experiment: pig calpain II inhibitor potency, dose response, biochemical, fluorogenic peptide substrate (AID 1420); assay type: functional
T1 sequence (P43367 whole entry): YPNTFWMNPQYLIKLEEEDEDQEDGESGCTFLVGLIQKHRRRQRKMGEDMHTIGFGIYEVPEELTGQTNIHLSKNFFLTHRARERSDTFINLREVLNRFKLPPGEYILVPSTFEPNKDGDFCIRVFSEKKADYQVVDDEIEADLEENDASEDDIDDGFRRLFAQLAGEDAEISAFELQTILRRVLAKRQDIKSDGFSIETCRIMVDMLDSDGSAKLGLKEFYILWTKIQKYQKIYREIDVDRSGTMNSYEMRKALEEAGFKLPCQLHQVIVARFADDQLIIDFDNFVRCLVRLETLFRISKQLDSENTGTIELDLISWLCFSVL

Escherichia coli [2] = experiment: microbe, parasite or virus in culture
Escherichia coli [3] = experiment: microbe, parasite or virus in culture; remark: listed apart in the source
NS3 = NS3 (Hepatitis C virus, UniProt A3EZJ3); experiment: PubChem AID 2173; design: species or system Hepacivirus hominis
Sequence of NS3 (A3EZJ3 whole entry): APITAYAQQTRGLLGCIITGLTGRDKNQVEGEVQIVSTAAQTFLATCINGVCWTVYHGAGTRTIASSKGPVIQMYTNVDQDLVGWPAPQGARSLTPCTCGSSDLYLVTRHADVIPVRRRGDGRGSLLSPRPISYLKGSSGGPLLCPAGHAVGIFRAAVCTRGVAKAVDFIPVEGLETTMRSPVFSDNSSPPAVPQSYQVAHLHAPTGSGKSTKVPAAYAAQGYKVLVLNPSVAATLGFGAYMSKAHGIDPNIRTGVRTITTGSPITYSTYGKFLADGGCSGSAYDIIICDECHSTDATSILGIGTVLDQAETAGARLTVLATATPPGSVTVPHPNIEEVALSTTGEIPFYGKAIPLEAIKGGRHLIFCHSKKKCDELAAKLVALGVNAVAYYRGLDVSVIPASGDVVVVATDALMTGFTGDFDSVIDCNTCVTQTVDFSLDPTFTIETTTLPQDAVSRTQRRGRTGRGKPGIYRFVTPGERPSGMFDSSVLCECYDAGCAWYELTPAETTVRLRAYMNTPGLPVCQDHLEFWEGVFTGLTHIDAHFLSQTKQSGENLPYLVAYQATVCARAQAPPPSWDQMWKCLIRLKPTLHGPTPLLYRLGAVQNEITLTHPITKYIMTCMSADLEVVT

DNA topoisomerase = biological target: T2, DNA topoisomerase (Yersinia pestis, UniProt A0A2S9PM60); experiment: Y. pestis Topo-I inhibitors, cleavage product readout, dose response, biochemical, cherry-pick (AID 588525)
T2 sequence (A0A2S9PM60 whole entry): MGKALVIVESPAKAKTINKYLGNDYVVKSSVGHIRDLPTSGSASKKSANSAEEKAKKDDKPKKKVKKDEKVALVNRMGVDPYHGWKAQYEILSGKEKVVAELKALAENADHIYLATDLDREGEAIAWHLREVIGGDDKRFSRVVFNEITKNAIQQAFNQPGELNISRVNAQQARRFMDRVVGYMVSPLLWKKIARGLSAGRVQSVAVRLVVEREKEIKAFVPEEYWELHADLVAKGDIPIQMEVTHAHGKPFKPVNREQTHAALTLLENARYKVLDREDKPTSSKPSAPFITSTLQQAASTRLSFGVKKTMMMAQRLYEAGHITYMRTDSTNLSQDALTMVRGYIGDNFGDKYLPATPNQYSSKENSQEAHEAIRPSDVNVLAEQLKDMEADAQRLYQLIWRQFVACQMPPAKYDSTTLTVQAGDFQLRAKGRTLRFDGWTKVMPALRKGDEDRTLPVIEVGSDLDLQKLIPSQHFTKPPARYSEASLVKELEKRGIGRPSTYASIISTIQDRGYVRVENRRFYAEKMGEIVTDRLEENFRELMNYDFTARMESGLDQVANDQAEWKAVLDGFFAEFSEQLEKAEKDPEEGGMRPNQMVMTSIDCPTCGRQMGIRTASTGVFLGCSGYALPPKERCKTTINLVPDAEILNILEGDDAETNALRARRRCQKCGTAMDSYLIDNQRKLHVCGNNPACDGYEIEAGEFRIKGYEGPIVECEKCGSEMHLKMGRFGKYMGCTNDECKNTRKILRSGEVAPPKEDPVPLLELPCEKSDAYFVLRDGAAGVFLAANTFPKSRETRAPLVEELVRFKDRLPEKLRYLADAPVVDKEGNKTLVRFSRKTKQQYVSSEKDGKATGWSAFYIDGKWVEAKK

Vero = Vero cell cytotoxicity, cytotoxicity control for flavivirus capping enzyme inhibitors (AID 588742); assay type: functional; conditions: Chlorocebus sabaeus
[4] = Late-stage probe development counterscreen for inhibitors of the Hepatitis C Virus non-structural protein 3 helicase (NS3): luminescence-based cell-based dose response assay to determine whether compounds that inhibit replication of HCV RNA replicon are cytotoxic. [Related pubchem assays (depositor defined):AID1800, AID1830, AID1845, AID1943, AID1945, AID2172, AID2173, AID2474, AID2476]; assay type: functional
Genome polyprotein = Genome polyprotein (dengue virus type 2, UniProt P29990); experiment: Dengue-2 NS5 methyltransferase inhibitors, primary screen, biochemical, confirmation dose response (AID 588689); assay type: functional
Sequence of Genome polyprotein (P29990 2492-3391 limits assumed): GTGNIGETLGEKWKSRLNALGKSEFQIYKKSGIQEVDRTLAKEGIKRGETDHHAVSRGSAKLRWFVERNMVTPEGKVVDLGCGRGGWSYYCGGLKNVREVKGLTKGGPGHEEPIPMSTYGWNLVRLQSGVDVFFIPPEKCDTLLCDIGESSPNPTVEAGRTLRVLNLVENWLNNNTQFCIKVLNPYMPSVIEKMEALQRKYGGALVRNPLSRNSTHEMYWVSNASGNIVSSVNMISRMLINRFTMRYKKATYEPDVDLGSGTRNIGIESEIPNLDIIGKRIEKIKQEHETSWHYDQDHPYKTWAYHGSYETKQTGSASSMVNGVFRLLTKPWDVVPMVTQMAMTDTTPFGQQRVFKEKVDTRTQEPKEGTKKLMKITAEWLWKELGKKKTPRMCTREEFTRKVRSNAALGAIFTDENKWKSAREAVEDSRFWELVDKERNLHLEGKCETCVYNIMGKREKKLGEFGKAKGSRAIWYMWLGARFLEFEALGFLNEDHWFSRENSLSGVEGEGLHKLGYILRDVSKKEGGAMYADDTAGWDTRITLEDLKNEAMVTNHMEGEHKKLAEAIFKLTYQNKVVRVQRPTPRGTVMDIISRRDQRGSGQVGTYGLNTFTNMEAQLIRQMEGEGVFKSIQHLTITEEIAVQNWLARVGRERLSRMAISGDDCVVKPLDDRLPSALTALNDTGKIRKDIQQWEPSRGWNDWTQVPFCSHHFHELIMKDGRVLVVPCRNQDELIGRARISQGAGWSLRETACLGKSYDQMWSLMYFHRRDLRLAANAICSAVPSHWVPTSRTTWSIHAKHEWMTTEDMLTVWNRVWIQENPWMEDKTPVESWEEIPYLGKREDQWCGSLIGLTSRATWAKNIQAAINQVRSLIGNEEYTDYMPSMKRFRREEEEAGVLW

[5] = biological target: T3, Low molecular weight phosphotyrosine protein phosphatase (Homo sapiens, UniProt P24666); assay type: functional; conditions: read-out: IC50_Mean
T3 sequence (P24666 whole entry): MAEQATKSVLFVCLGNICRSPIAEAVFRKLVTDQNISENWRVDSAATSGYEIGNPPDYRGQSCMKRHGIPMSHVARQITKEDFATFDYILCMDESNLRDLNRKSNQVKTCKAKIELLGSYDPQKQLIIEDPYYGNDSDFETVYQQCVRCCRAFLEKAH

[6] = biological target: T3, Low molecular weight phosphotyrosine protein phosphatase; assay type: functional; conditions: read-out: IC50_Mean; remark: listed apart in the source
[7] = Luminescence Cell-Based Dose Retest to Confirm Inhibitors of Cancer Stem Cells. [Related pubchem assays (depositor defined):AID2717, AID2721]; assay type: functional; conditions: Homo sapiens
[8] = cytotoxicity in HMLE control line with eGFP shRNA, dose response, counter-screen for HMLE_sh_ECad selective toxicity project, cell-based, HMLE_sh_eGFP, luminescence (AID 463074); assay type: functional, Homo sapiens;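 also: HMLE human mammary epithelial cells expressing control shRNA against eGFP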
INS1 = experiment: beta cell apoptosis inhibitors, cytokine rescue, dose response, luminescence, retest (AID 449756); assay type: functional, cell-based; conditions: Rattus norvegicus;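 also: cell death triggered by IL-1 beta plus TNF-alpha plus IFN-gamma mixture; protective hits raise ATP signal compared with cytokine alone wells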
[9] = HEp-2 cell cytotoxicity, dose response, cytotoxicity control for RSV inhibitor project, HTS (AID 2410); assay type: functional; conditions: human respiratory syncytial virus
[10] = biological target: Dual specificity protein kinase CLK1 (Homo sapiens, UniProt P49759); experiment: CLK1 kinase inhibitors, off-target check, dose response, selectivity assay for Dyrk1A inhibitor project, biochemical, cherry-picked samples (AID 588811)
Sequence of Dual specificity protein kinase CLK1 (P49759 whole entry): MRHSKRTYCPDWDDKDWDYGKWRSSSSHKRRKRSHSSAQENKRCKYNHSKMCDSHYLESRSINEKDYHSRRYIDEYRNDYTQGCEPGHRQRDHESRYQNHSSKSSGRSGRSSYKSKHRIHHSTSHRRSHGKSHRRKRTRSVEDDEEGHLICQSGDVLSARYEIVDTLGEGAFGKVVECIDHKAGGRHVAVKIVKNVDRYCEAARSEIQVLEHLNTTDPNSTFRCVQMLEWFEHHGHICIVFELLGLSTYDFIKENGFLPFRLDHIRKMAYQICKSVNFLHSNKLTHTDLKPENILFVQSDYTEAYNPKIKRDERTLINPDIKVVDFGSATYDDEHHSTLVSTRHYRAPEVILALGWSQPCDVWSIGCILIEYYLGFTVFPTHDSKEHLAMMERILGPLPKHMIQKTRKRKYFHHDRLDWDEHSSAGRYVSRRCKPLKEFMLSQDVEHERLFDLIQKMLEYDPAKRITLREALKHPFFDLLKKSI

[11] = biological target: Dual specificity tyrosine-phosphorylation-regulated kinase 1A (Rattus norvegicus, UniProt Q63470); assay type: biochemical, Homo sapiens
Jurkat = experiment: antigen receptor-induced NF-kB inhibitors, dose response, Jurkat, luciferase reporter, luminescence, B- and T-cell (AID 489004); assay type: functional, cell-based; conditions: Homo sapiens;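 also: NF-kB luciferase reporter Jurkat cells stimulated with PMA plus ionomycin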
[12] = cytotoxicity in HEK-293T NF-kB-Luc cells, dose response, cytotoxicity control for B/T-cell NF-kB inhibitor project, cell-based, uHTS hits (AID 489019); assay type: functional;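 also: IC50 reflects cytotoxicity as loss of cell viability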
[13] = biological target: T4, Microphthalmia-associated transcription factor (Homo sapiens, UniProt O75030); experiment: TRPM1 promoter luciferase signal decrease, dose response, MITF inhibitor project, cell-based, SK-MEL-5, cherry-picked, set 3 (AID 493073); assay type: functional
T4 sequence (O75030 whole entry): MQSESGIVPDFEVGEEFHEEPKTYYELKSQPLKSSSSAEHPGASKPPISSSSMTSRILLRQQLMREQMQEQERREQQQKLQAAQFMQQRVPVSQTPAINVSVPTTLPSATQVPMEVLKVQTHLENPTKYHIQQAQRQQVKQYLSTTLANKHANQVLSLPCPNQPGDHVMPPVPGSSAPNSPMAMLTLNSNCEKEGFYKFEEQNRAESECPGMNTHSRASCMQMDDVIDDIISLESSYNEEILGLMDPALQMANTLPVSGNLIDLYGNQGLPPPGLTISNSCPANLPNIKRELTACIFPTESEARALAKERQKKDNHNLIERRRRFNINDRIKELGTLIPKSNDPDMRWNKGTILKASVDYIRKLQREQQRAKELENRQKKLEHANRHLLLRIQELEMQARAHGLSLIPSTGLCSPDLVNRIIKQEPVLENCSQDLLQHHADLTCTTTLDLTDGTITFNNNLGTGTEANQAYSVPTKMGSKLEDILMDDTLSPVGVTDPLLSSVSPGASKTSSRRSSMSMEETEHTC

A-375 [14] = experiment: MITF: Counter assay: A375 proliferation Measured in Cell-Based System Using Plate Reader - 2084-03_Inhibitor_Dose_DryPowder_Activity. [Related pubchem assays (depositor defined):AID488944]; assay type: functional; conditions: Homo sapiens
A-375 [15] = experiment: A375 melanoma cell viability reduction, dose response, counter-screen for MITF modulator project, cherry-pick samples, set 2 (AID 540335); assay type: functional, cell-based; conditions: Homo sapiens
[16] = Shn3 3'UTR reporter inhibitors, dose response, cell-based, Clone20 osteoblasts, firefly luciferase, cherry-picked (AID 624132); assay type: functional;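 also: firefly luciferase luminescence from reporter carrying the Shn3 3'UTR in osteoblasts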
[17] = control 3'UTR Renilla luciferase suppression, dose response, counter-screen for Shn3 inhibitor project, cell-based, Clone20-Shn3RL, cherry-picked (AID 624133); assay type: functional
[18] = biological target: Photoreceptor-specific nuclear receptor (Homo sapiens, UniProt Q9Y5X4); assay type: functional, cell-based;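 also: CHO-S cells with Gal4-NCOR and VP16-NR2E3 two-hybrid luciferase reporter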
Sequence of Photoreceptor-specific nuclear receptor (Q9Y5X4 whole entry, the tested form may be a part): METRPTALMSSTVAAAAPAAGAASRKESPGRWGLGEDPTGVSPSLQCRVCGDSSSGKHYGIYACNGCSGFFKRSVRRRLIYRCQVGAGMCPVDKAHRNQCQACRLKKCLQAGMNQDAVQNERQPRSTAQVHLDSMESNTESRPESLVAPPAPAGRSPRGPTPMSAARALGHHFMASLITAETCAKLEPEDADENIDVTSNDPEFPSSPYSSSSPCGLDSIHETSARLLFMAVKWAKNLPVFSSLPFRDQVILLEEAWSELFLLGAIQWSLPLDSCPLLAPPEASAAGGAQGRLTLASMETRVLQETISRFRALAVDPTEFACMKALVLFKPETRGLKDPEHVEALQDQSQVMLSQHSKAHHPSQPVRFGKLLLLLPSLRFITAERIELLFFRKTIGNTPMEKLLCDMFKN

O=C(CCC(=O)OCc1cccc(C(=O)Oc2ccccc2)c1)Nc1cccc2ccccc12
IC50 [1]: < 0.4 µM (not active)
AC50 (Escherichia coli [2]): 23.5 µM (active)
AC50 (Escherichia coli [3]): 212 µM (active)

CCCCCOc1ccc(C2C(C(=O)c3ccc(C)o3)=C(O)C(=O)N2c2cc(C)on2)cc1 (centres undefined)
IC50 (NS3): 2.44 µM (active)
AC50 (DNA topoisomerase): 6.14 µM (active)
CC50 (Vero): > 40 µM (active)
CC50 [4]: > 100 µM (inactive)
IC50 (Genome polyprotein): 31.6 µM (active)
IC50 [5]: > 80 µM (inactive)
IC50 [6]: 2.21 µM (active)

c1ccc(N2CCN(CC3CCCCC3)CC2)cc1
AC50 [7]: 25.3 µM (active)
AC50 [8]: 95.2 µM (active)
AC50 (INS1): 91.4 µM (active)

O=c1cc(-c2ccccc2Cl)oc2c(NS(=O)(=O)c3ccccc3C(F)(F)F)ccc(O)c12
CC50 [9]: 48.5 µM (active)
AC50 [10]: 18.9 µM (active)
AC50 [11]: 65.4 µM (active)

C=CCn1c(C)cc(C(=O)CN2C(=O)c3ccccc3S2(=O)=O)c1C
IC50 (Jurkat): 1.17 µM (active)
IC50 [12]: > 80 µM (inactive)
AC50 [13]: 0.666 µM (active)
AC50 (A-375 [14]): > 35 µM (active)
AC50 (A-375 [15]): > 35 µM (active)
AC50 [16]: 0.974 µM (active)
AC50 [17]: 23.2 µM (active)
IC50 [18]: 2.46 µM (active)
